Measured values from publication PMC7894522, “Structure Based Design of Bicyclic Peptide Inhibitors of RbAp48” (Angewandte Chemie (International Ed. in English), 2020).
Starred links: 1 amine or outer side, 2 acyl side, 3 side chain; linkers in the order of their positions; H or OH if unused. Positions of bridges follow the written chain, without caps; N, C: chain ends. Residues, ends and D or L forms follow the SMILES beside them. Pyridine(2,6-diCH2) = c1cc(C[*:1])nc(C[*:2])c1; TBMB = c1c(C[*:1])cc(C[*:3])cc1C[*:2]; mXylylene = c1cc(C[*:1])cc(C[*:2])c1; pXylylene = c1cc(C[*:2])ccc1C[*:1]

These molecules were tested against RbAp48 (Homo sapiens, UniProt Q09028) (assay: Competitive fluorescence polarization (FP) assay using complex of peptide 1 and RbAp48). Settings: Supplemental Table 2; competitive FP, tracer 1 nM, RbAp48 15 nM, pH 7.5, 30 min room temperature; read-out: IC50.
Chain of RbAp48 (Q09028 whole entry): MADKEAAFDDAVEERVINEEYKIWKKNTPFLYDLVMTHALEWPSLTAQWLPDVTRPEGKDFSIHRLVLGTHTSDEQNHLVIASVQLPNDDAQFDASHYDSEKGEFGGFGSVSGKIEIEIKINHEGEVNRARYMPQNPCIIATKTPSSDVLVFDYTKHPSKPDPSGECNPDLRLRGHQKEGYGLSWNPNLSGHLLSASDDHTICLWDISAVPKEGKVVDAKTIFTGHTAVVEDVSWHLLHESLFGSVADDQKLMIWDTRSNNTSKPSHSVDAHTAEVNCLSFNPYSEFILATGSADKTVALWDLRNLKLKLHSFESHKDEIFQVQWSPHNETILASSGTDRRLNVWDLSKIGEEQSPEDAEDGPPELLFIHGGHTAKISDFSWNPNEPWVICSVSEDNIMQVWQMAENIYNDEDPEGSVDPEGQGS
Type: binding
Parameters: Full length RbAp48 was cloned; His tag followed by 3C cleavage site (N, cleaved yes); made in house; host or cells: Sf9 insect cells
Procedure: The binding affinity of our library of synthetic cyclic peptides was evaluated by a competitive fluorescence polarization (FP) assay using a complex formed by peptide 1 and RbAp48. To reduce the length of the peptide it was truncated to the amino acids which seemed most critical according to the crystal structure (residues 676–689, pdb:4pbz). […] We chose to use a cyclization approach to regain affinity, that is, not to induce more interactions but through minimizing the entropic penalty upon binding by reducing the flexibility of the peptide. To this end two amino acids were chosen which are facing one another in the structure (see Figure 1 B/D/E). Two peptides were designed where glutamic acid was used in position 676 (4) or position 680 (5) and lysine in position 688 for both peptides (see Table 1). The macrocycles were formed by connecting the side chains via an amide bond (see Figure 1 D/E). Peptide synthesis was performed on Rink‐amide resin using the Fmoc‐strategy incorporating Fmoc‐L‐Glu(All)‐OH and Fmoc‐L‐Lys(Alloc)‐OH at the sites for cyclization. After completion of the linear synthesis the allyl protecting groups were removed using Pd^0 catalysis and the amide link was formed by using PyBOP. […] Therefore, a range of peptides was synthesized which were cyclized using the same amino acid positions but via a cysteine alkylation strategy (see Figure 1 D/E and Table 1). In this method the residues used for cyclization are replaced with cysteine and benzylic dibromides act as crosslinkers on the unprotected peptides. ^[11] Previous research has shown that such linkers can effectively stabilize cyclic peptides and yield high affinity ligands for protein–protein interaction inhibition. ^[12] Such a linker introduces a xylene group in close vicinity of the hydrophobic patch potentially reconstituting the lost key hydrophobic interactions. To explore a variety of macrocycle conformations we used either ortho‐, meta‐ or para‐substituted dibromides to exchange the linker in both 4 and 5 (see Figure 1 D/E and Table 1). ^[13]
Protein expression and purification
RbAp48 was expressed and purified by the Dortmund Protein Facility. Full length RbAp48 was cloned into a pOPIN vector ligating it to an N-terminal His tag followed by a 3C cleavage site. The protein was expressed from Sf9 cells for 48 h. Cells were harvested and lysed and the protein was purified by loading onto a HisTrap FF crude 5 ml column followed by on-column cleavage using Precission protease. The cleaved protein was then further purified using a HiLoad 26/60 Superdex 200 column.
Fluorescence polarization assay
Fluorescence polarization assays were performed in 384 wells plates in 80 µl volumes. The assay buffer contains 20 mM Tris-HCl, 150 mM NaCl, 0.01% Tween-20 at pH 7.5. The concentration of the fluorescently labelled peptides was 1 nM plates were incubated at room temperature for 30 min before they were read on a Tecan Spark plate reader (λex = 485 nm, λem = 535 nm).
For competitive assays the same conditions were used with a tracer concentration of 1 nM was used and a protein concentration of 15 nM .

| IC50 [nM] | Structure (SMILES) |
| --- | --- |
| 265 ± 7.4 | CC(=O)N[C@H]1CSCc2cccc(c2)CSC[C@@H](C(=O)N[C@@H](C)C(N)=O)NC(=O)[C@@H]2CCCN2C(=O)[C@H](CCCCN)NC(=O)[C@H](Cc2ccc(O)cc2)NC(=O)[C@@H]2CCCN2C(=O)[C@H](CCCNC(=N)N)NC(=O)[C@H](CCCNC(=N)N)NC(=O)[C@H](C)NC(=O)[C@H](C)NC(=O)[C@H](Cc2c[nH]cn2)NC(=O)[C@H](CCCCN)NC(=O)[C@H]([C@@H](C)O)NC1=O [Peptide 24] (Ac-CTKHAARRPYKPCA-NH2; linker 1-13 via mXylylene) |
| > 10000 | CC[C@H](C)[C@H](NC(=O)[C@@H]1CCCN1C(=O)[C@H](CC(C)C)NC(=O)[C@H](Cc1ccc(O)cc1)NC(=O)[C@@H]1CCCN1C(=O)[C@H](Cc1c[nH]cn1)NC(=O)[C@H](CCCNC(=N)N)NC(=O)[C@H](C)NC(=O)[C@H](C)NC(=O)[C@H](Cc1c[nH]cn1)NC(=O)[C@H](Cc1c[nH]c2ccccc12)NC(=O)[C@@H]1CCCN1C(=O)[C@H](CCCNC(=N)N)NC(C)=O)C(=O)N[C@@H](CC(N)=O)C(N)=O [Peptide 15] (Ac-RPWHAARHPYLPIN-NH2) |
| 245 ± 29.3 | CC(=O)N[C@H]1CSCc2ccc(cc2)CSC[C@@H](C(=O)N[C@@H](C)C(N)=O)NC(=O)[C@@H]2CCCN2C(=O)[C@H](CCCCN)NC(=O)[C@H](Cc2ccc(O)cc2)NC(=O)[C@@H]2CCCN2C(=O)[C@H](CCCNC(=N)N)NC(=O)[C@H](CCCNC(=N)N)NC(=O)[C@H](C)NC(=O)[C@H](C)NC(=O)[C@H](CCCNC(=N)N)NC(=O)[C@H](Cc2c[nH]c3ccccc23)NC(=O)[C@H]([C@@H](C)O)NC1=O [Peptide 23] (Ac-CTWRAARRPYKPCA-NH2; linker 1-13 via pXylylene) |
| 40.4 ± 1.5 | CC(=O)N[C@H]1CSCc2cc(C)cc(c2)CSC[C@@H](C(=O)N[C@@H](C)C(N)=O)NC(=O)[C@@H]2CCCN2C(=O)[C@H](CCCCN)NC(=O)[C@H](Cc2ccc(O)cc2)NC(=O)[C@@H]2CCCN2C(=O)[C@H](CCCNC(=N)N)NC(=O)[C@H](CCCNC(=N)N)NC(=O)[C@H](C)NC(=O)[C@H](C)NC(=O)[C@H](CCCNC(=N)N)NC(=O)[C@H](CCCCN)NC(=O)[C@H]([C@@H](C)O)NC1=O [Peptide 31] (Ac-CTKRAARRPYKPCA-NH2; linker 1-13 via TBMB (inferred)) |

Same assay, conditions: Table 1; competitive FP, tracer peptide 1 1 nM, RbAp48 15 nM, 20 mM Tris-HCl, 150 mM NaCl, 0.01% Tween-20, pH 7.5, 30 min room temperature; lower limit set by 15 nM protein; read-out: IC50

| IC50 [nM] | Structure (SMILES) |
| --- | --- |
| 388 ± 69.8 | CC(=O)N[C@@H](CCC(=O)O)C(=O)N[C@H](C(=O)N[C@@H](CCCCN)C(=O)N[C@@H](CCCNC(=N)N)C(=O)N[C@H]1CSCc2cccc(c2)CSC[C@@H](C(=O)N[C@@H](C)C(N)=O)NC(=O)[C@@H]2CCCN2C(=O)[C@H](CCCCN)NC(=O)[C@H](Cc2ccc(O)cc2)NC(=O)[C@@H]2CCCN2C(=O)[C@H](CCCNC(=N)N)NC(=O)[C@H](CCCNC(=N)N)NC(=O)[C@H](C)NC1=O)[C@@H](C)O [Peptide 11] (Ac-ETKRCARRPYKPCA-NH2; linker 5-13 via mXylylene) |
| 126 ± 32.3 | CC(=O)N[C@@H](CCC(=O)O)C(=O)N[C@H](C(=O)N[C@@H](CCCCN)C(=O)N[C@@H](CCCNC(=N)N)C(=O)N[C@H]1CCC(=O)NCCCC[C@@H](C(=O)N[C@@H](C)C(N)=O)NC(=O)[C@@H]2CCCN2C(=O)[C@H](CCCCN)NC(=O)[C@H](Cc2ccc(O)cc2)NC(=O)[C@@H]2CCCN2C(=O)[C@H](CCCNC(=N)N)NC(=O)[C@H](CCCNC(=N)N)NC(=O)[C@H](C)NC1=O)[C@@H](C)O [Peptide 5] (Ac-ETKREARRPYKPKA-NH2; lactam 5-13) |
| 147 ± 10.7 | CC(=O)N[C@@H](CCC(=O)O)C(=O)N[C@H](C(=O)N[C@@H](CCCCN)C(=O)N[C@@H](CCCNC(=N)N)C(=O)N[C@H]1CSCc2cccc(n2)CSC[C@@H](C(=O)N[C@@H](C)C(N)=O)NC(=O)[C@@H]2CCCN2C(=O)[C@H](CCCCN)NC(=O)[C@H](Cc2ccc(O)cc2)NC(=O)[C@@H]2CCCN2C(=O)[C@H](CCCNC(=N)N)NC(=O)[C@H](CCCNC(=N)N)NC(=O)[C@H](C)NC1=O)[C@@H](C)O [Peptide 13] (Ac-ETKRCARRPYKPCA-NH2; linker 5-13 via Pyridine(2,6-diCH2)) |
